This note sets out measurements from patent US7750003B2, “Compounds-943” (AstraZeneca AB, priority 2006, dated 2010).

SMILES strings stand for the structures.

recombinant mTOR (FLAG-tagged, residues 1362-2549), sequence (P42345 1362-2549): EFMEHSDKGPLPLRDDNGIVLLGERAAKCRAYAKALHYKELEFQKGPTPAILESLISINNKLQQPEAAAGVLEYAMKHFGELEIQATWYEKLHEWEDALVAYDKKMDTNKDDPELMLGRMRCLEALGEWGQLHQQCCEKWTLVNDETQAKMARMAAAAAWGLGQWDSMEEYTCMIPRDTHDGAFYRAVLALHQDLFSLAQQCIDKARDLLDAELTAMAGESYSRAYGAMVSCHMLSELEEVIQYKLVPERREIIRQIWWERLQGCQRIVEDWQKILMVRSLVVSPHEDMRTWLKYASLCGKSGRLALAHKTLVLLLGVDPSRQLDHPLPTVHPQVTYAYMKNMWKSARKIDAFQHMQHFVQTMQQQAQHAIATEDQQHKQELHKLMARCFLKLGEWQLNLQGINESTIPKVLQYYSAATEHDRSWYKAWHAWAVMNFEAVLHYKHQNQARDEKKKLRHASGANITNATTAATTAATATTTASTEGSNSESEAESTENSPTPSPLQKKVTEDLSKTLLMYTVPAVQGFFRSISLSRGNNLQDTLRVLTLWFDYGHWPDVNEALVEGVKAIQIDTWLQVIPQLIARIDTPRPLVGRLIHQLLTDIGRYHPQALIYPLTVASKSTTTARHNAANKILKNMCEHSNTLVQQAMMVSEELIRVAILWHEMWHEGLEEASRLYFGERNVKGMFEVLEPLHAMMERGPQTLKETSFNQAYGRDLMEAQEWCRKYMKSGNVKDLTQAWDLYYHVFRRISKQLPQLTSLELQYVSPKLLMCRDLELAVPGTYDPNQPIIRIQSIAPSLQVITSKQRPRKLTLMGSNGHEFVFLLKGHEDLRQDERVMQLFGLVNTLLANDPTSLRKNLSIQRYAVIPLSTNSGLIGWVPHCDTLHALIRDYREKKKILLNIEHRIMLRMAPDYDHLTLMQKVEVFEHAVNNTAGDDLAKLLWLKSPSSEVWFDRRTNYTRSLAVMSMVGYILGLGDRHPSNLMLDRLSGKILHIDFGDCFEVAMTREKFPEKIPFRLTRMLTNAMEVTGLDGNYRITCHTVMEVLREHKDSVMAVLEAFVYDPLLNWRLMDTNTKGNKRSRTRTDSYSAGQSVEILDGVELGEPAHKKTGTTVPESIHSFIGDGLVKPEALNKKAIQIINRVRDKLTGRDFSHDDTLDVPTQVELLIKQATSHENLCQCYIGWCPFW

For this test, the target named is recombinant mTOR (FLAG-tagged, residues 1362-2549) (Homo sapiens, UniProt P42345). Briefly: In vitro mTOR kinase assay (Test (a), AlphaScreen). As to conditions: ATP 20 μM, read-out: Test (a): IC50 versus mTOR kinase. In kind it is biochemical. In a few lines:
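AlphaScreen read-out: a phospho-T389 p70 S6K antibody on acceptor beads captures the phosphorylated biotin-peptide on donor beads, with signal loss indicating inhibition.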
Turning to `C[C@H]1COCCN1c1cc(CS(C)(=O)=O)nc(-n2ccc(NC(=O)Nc3ccc(F)cc3)n2)n1` [Example 25b, 3-(4-fluorophenyl)-1-[1-[4-[(3S)-3-methylmorpholin-4-yl]-6-(methylsulfonylmethyl)pyrimidin-2-yl]pyrazol-3-yl]urea], the IC50 (commonly the concentration that inhibits the measured activity by half) was determined as 4400 nM.
On to `CNC(=O)CS(=O)(=O)Cc1cc(N2CCOC[C@@H]2C)nc(-c2ccc(NC(=O)NC)cc2)n1` [Example 26, N-Methyl-2-[[2-[4-(methylcarbamoylamino)phenyl]-6-[(3S)-3-methylmorpholin-4-yl]pyrimidin-4-yl]methylsulfonyl]acetamide], for which the IC50 amounted to 29 nM.
Regarding `CNC(=O)Nc1ccc(-c2nc(CS(=O)(=O)CC(N)=O)cc(N3CCOC[C@@H]3C)n2)cc1` [Example 26a, 2-[[2-[4-(methylcarbamoylamino)phenyl]-6-[(3S)-3-methylmorpholin-4-yl]pyrimidin-4-yl]methylsulfonyl]acetamide], the IC50 is 37 nM.
The value for `CNC(=O)Nc1ccc(-c2nc(CS(=O)(=O)CCNC(C)=O)cc(N3CCOC[C@@H]3C)n2)cc1` [Example 26b, N-[2-[[2-[4-(methylcarbamoylamino)phenyl]-6-[(3S)-3-methylmorpholin-4-yl]pyrimidin-4-yl]methylsulfonyl]ethyl]acetamide] was 41 nM; that for `C[C@H]1COCCN1c1cc(CN2CCOCC2)nc(-c2ccc(NC(=O)Nc3ccccc3)cc2)n1` [Example 27, 1-[4-[4-[(3S)-3-Methylmorpholin-4-yl]-6-(morpholin-4-ylmethyl)pyrimidin-2-yl]phenyl]-3-phenyl-urea] was 190 nM; that for `C[C@H]1COCCN1c1cc(COc2ccccc2)nc(-c2ccc(NC(=O)Nc3ccccc3)cc2)n1` [Example 28, 1-[4-[4-[(3S)-3-Methylmorpholin-4-yl]-6-(phenoxymethyl)pyrimidin-2-yl]phenyl]-3-phenyl-urea] was 4700 nM.
For the molecule `C[C@H]1COCCN1c1cc(CS(=O)(=O)C2CCNC2=O)nc(-c2ccc(NC(=O)Nc3ccccc3)cc2)n1` (stereo partly drawn) [Example 29, 1-[4-[4-[(3S)-3-Methylmorpholin-4-yl]-6-[(2-oxopyrrolidin-3-yl)sulfonylmethyl]pyrimidin-2-yl]phenyl]-3-phenyl-urea], the IC50 came out at 560 nM.
Regarding `C[C@H]1COCCN1c1cc(CNc2ccccc2)nc(-c2ccc(NC(=O)Nc3ccccc3)cc2)n1` [Example 30, 1-[4-[4-(Anilinomethyl)-6-[(3S)-3-methylmorpholin-4-yl]pyrimidin-2-yl]phenyl]-3-phenyl-urea], the IC50 came out at 900 nM.
Turning to `C[C@H]1COCCN1c1cc(CN2CCN(C)CC2)nc(-c2ccc(NC(=O)Nc3ccccc3)cc2)n1` [Example 30a, 1-[4-[4-[(3S)-3-methylmorpholin-4-yl]-6-[(4-methylpiperazin-1-yl)methyl]pyrimidin-2-yl]phenyl]-3-phenyl-urea], the 50% inhibitory concentration (IC50) was determined as 120 nM.
Consider `C[C@H]1COCCN1c1cc(CNC2CC2)nc(-c2ccc(NC(=O)Nc3ccccc3)cc2)n1` [Example 30b, 1-[4-[4-[(cyclopropylamino)methyl]-6-[(3S)-3-methylmorpholin-4-yl]pyrimidin-2-yl]phenyl]-3-phenyl-urea], for which the IC50 was 180 nM.
Regarding `C[C@H]1COCCN1c1cc(CNC2CCN(C)CC2)nc(-c2ccc(NC(=O)Nc3ccccc3)cc2)n1` [Example 30c, 1-[4-[4-[(3S)-3-methylmorpholin-4-yl]-6-[[(1-methyl-4-piperidyl)amino]methyl]pyrimidin-2-yl]phenyl]-3-phenyl-urea], the IC50 was 1100 nM.
The value for `C[C@H]1COCCN1c1cc(CN(C)C2CC2)nc(-c2ccc(NC(=O)Nc3ccccc3)cc2)n1` [Example 30d, 1-[4-[4-[(cyclopropyl-methyl-amino)methyl]-6-[(3S)-3-methylmorpholin-4-yl]pyrimidin-2-yl]phenyl]-3-phenyl-urea] was 280 nM; that for `C[C@H]1COCCN1c1cc(COC2CCN(C)CC2)nc(-c2ccc(NC(=O)Nc3ccccc3)cc2)n1` [Example 31, 1-[4-[4-[(3S)-3-Methylmorpholin-4-yl]-6-[(1-methyl-4-piperidyl)oxymethyl]pyrimidin-2-yl]phenyl]-3-phenyl-urea] was 350 nM.
In the case of `COCc1cc(N2CCOC[C@@H]2C)nc(-c2ccc(NC(=O)Nc3ccccc3)cc2)n1` [Example 32, 1-[4-[4-(Methoxymethyl)-6-[(3S)-3-methylmorpholin-4-yl]pyrimidin-2-yl]phenyl]-3-phenyl-urea], the IC50 was 6.2 nM.
Consider `CNC(=O)Nc1ccc(-c2nc(CS(=O)(=O)c3nccn3C)cc(N3CCOC[C@@H]3C)n2)cc1` [Example 33, 3-Methyl-1-[4-[4-[(1-methylimidazol-2-yl)sulfonylmethyl]-6-[(3S)-3-methylmorpholin-4-yl]pyrimidin-2-yl]phenyl]urea], for which the IC50 came to 840 nM.
As to `CNC(=O)Nc1ccc(-c2nc(CS(=O)(=O)c3ccccc3Cl)cc(N3CCOC[C@@H]3C)n2)cc1` [Example 33a, 1-[4-[4-[(2-chlorophenyl)sulfonylmethyl]-6-[(3S)-3-methylmorpholin-4-yl]pyrimidin-2-yl]phenyl]-3-methyl-urea], the IC50 stood at 60 nM.
Turning to `CNC(=O)Nc1ccc(-c2nc(CS(=O)(=O)c3ccccc3OC)cc(N3CCOC[C@@H]3C)n2)cc1` [Example 33b, 1-[4-[4-[(2-methoxyphenyl)sulfonylmethyl]-6-[(3S)-3-methylmorpholin-4-yl]pyrimidin-2-yl]phenyl]-3-methyl-urea], the IC50 is 66 nM.
Regarding `CNC(=O)Nc1ccc(-c2nc(CS(=O)(=O)c3ncc[nH]3)cc(N3CCOC[C@@H]3C)n2)cc1` [Example 33c, 1-[4-[4-(1H-imidazol-2-ylsulfonylmethyl)-6-[(3S)-3-methylmorpholin-4-yl]pyrimidin-2-yl]phenyl]-3-methyl-urea], the IC50 is 1.4 nM.
Take `CNC(=O)Nc1ccc(-c2nc(CS(=O)(=O)c3ccc(N)cc3)cc(N3CCOC[C@@H]3C)n2)cc1` [Example 33d, 1-[4-[4-[(4-aminophenyl)sulfonylmethyl]-6-[(3S)-3-methylmorpholin-4-yl]pyrimidin-2-yl]phenyl]-3-methyl-urea]: the IC50 came to 0.31 nM.
The value for `CNC(=O)Nc1ccc(-c2nc(CS(=O)(=O)c3ccccc3C)cc(N3CCOC[C@@H]3C)n2)cc1` [Example 33e, 3-methyl-1-[4-[4-[(3S)-3-methylmorpholin-4-yl]-6-[(2-methylphenyl)sulfonylmethyl]pyrimidin-2-yl]phenyl]urea] was 88 nM; that for `CNC(=O)Nc1ccc(-c2nc(CS(=O)(=O)c3ccccn3)cc(N3CCOC[C@@H]3C)n2)cc1` [Example 33f, 3-methyl-1-[4-[4-[(3S)-3-methylmorpholin-4-yl]-6-(pyridin-2-ylsulfonylmethyl)pyrimidin-2-yl]phenyl]urea] was 270 nM.
`CNC(=O)Nc1ccc(-c2nc(CS(=O)(=O)c3nccs3)cc(N3CCOC[C@@H]3C)n2)cc1` [Example 33g, 3-methyl-1-[4-[4-[(3S)-3-methylmorpholin-4-yl]-6-(1,3-thiazol-2-ylsulfonylmethyl)pyrimidin-2-yl]phenyl]urea]: the IC50 came to 21 nM.
For the molecule `CNC(=O)Nc1ccc(-c2nc(CS(=O)(=O)c3nc(C)cs3)cc(N3CCOC[C@@H]3C)n2)cc1` [Example 33h, 3-methyl-1-[4-[4-[(3S)-3-methylmorpholin-4-yl]-6-[(4-methyl-1,3-thiazol-2-yl)sulfonylmethyl]pyrimidin-2-yl]phenyl]urea], the IC50 stood at 48 nM.
Consider `CS(=O)(=O)Cc1cc(N2CCOCC2)nc(-c2ccc(NC(N)=O)cc2)n1` [Example 34, [4-[4-(Methylsulfonylmethyl)-6-morpholin-4-yl-pyrimidin-2-yl]phenyl]urea], for which the IC50 was 210 nM.
Turning to `CS(=O)(=O)Cc1cc(N2CCOCC2)nc(-c2ccc(NC(=O)Nc3ccon3)cc2)n1` [Example 34a, 1-[4-[4-(methylsulfonylmethyl)-6-morpholin-4-yl-pyrimidin-2-yl]phenyl]-3-(1,2-oxazol-3-yl)urea], the IC50 is 42 nM.
`Cn1ccc(NC(=O)Nc2ccc(-c3nc(CS(C)(=O)=O)cc(N4CCOCC4)n3)cc2)n1` [Example 34c, 1-(1-methylpyrazol-3-yl)-3-[4-[4-(methylsulfonylmethyl)-6-morpholin-4-yl-pyrimidin-2-yl]phenyl]urea]: the IC50 turned out to be 720 nM.
As to `CC(CO)NC(=O)Nc1ccc(-c2nc(CS(C)(=O)=O)cc(N3CCOC[C@@H]3C)n2)cc1` (stereo partly drawn) [Example 35, 3-(1-Hydroxypropan-2-yl)-1-[4-[4-[(3S)-3-methylmorpholin-4-yl]-6-(methylsulfonylmethyl)pyrimidin-2-yl]phenyl]urea], the IC50 came out at 64 nM.
Regarding `C[C@H]1COCCN1c1cc(CS(C)(=O)=O)nc(-c2ccc(NC(=O)NCCCN(C)C)cc2)n1` [Example 35a, 3-(3-dimethylaminopropyl)-1-[4-[4-[(3S)-3-methylmorpholin-4-yl]-6-(methylsulfonylmethyl)pyrimidin-2-yl]phenyl]urea], the IC50 came to 6400 nM.
As for `COCCCNC(=O)Nc1ccc(-c2nc(CS(C)(=O)=O)cc(N3CCOC[C@@H]3C)n2)cc1` [Example 35b, 3-(3-methoxypropyl)-1-[4-[4-[(3S)-3-methylmorpholin-4-yl]-6-(methylsulfonylmethyl)pyrimidin-2-yl]phenyl]urea], the IC50 was 420 nM.
As for `C[C@H]1COCCN1c1cc(CS(C)(=O)=O)nc(-c2ccc(NC(=O)N3CCCC3)cc2)n1` [Example 35c, N-[4-[4-[(3S)-3-methylmorpholin-4-yl]-6-(methylsulfonylmethyl)pyrimidin-2-yl]phenyl]pyrrolidine-1-carboxamide], the IC50 amounted to 3400 nM.
As to `C[C@H]1COCCN1c1cc(CS(C)(=O)=O)nc(-c2ccc(NC(=O)N3CCOCC3)cc2)n1` [Example 35d, N-[4-[4-[(3S)-3-methylmorpholin-4-yl]-6-(methylsulfonylmethyl)pyrimidin-2-yl]phenyl]morpholine-4-carboxamide], the IC50 is 3200 nM.
For the molecule `C[C@H]1COCCN1c1cc(CS(C)(=O)=O)nc(-c2ccc(NC(=O)N3CCC(O)CC3)cc2)n1` [Example 35e, 4-hydroxy-N-[4-[4-[(3S)-3-methylmorpholin-4-yl]-6-(methylsulfonylmethyl)pyrimidin-2-yl]phenyl]piperidine-1-carboxamide], the IC50 stood at 2500 nM.
